Earlier results as cited in US11045444B2, “Composition and method for promoting eyelash and eyebrow growth exclusively containing naturally sourced ingredients” (Plume Cosmetics Inc., priority 2016, dated 2021).

**Q.** For `C=C[C@@]1(C)CC(=O)[C@]2(O)[C@@]3(C)[C@@H](O)CCC(C)(C)[C@@H]3[C@H](O)[C@H](OC(C)=O)[C@@]2(C)O1` [forskolin], which solubility in water is on record?
**A.** Its solubility in water is “approximately 0.001%”.
